Consider 17 compounds from patent US4694006A, “Acyl- or acyloxymethyl-allopurinol prodrugs” (priority 1983, dated 1987).

One series is described as follows: physchem. The settings on record: water. As for the experimental part:
(§1) The water-solubility and lipophilicity of the allopurinol drugs
(§2) The apparent partition coefficients (P) for some allopurinol derivatives and allopurinol were measured using the widely used 1-octanol-water system. Similarly, the solubility of the derivatives in water or aqueous buffer solutions was determined.

Series [1] is described as follows: In-vitro cleavage of allopurinol derivatives to allopurinol in pH 7.4 buffer at 37° C. The format is physicochemical. The settings on record: read-out: Half-time (t0.5) of the conversion to allopurinol, pH 7.4 buffer (converted). As for the experimental part:
(§3) In-vitro cleavage of allopurinol derivatives
(§4) Solutions of various derivatives of allopurinol in aqueous buffer solutions or 80% human plasma solutions (pH 7.4) were kept at 37° C. The initial concentration of the derivatives was in the range 0.01-0.1 mg/ml. At various times an aliquot of the solutions was withdrawn and analyzed by HPLC for remaining derivative as well as for allopurinol. For the plasma solutions the aliquot withdrawn was deproteinized with ethanol or trichloroacetic acid and after centrifugation, the clear supernatant was injected on HPLC.
(§5) An HPLC method was used for the determination of allopurinol and its derivatives. In this method a reversed-phase LiChrosorb RP-8 column (250×4 mm) was eluated at ambient temperature with mixtures of methanol and 0.01M acetate buffer pH 4.5 or methanol and 0.03M phosphate buffer pH 7.0. The composition of the eluant was adjusted for each compound in order to provide an appropriate retention time. The flow rate was 1.2 ml/min and the column effluent was monitored spectrophotometrically at 252 nm or 274 nm. Quantitation of the compounds was done by measurement of peak heights.
(§6) The half-times of allopurinol formation from various derivatives at physiological conditions of pH and temperature are given in Table 2. It can be seen that in the presence of human plasma the rate of degradation is strongly accelerated, thus showing the susceptibility of the derivatives to undergo conversion into the parent active compound at conditions simiar to those prevailing in vivo.

Series [2] in a line: In-vitro cleavage of allopurinol derivatives to allopurinol in 80% human plasma (pH 7.4) at 37° C. The conditions noted are these: 80% plasma, pH 7.4, 37° C, read-out: Half-time (t0.5) of the conversion to allopurinol, 80% human plasma (converted). The format is in vitro ADME. The method, then:
as §3, §4, §5, §6

How the values of series [3] were obtained: as §1, §2

SMILES strings stand for the structures. Converted amounts (≈) assume the structure as drawn. Counter-ions that a name gives are not always drawn. Like-named read-outs stand apart in the source and are kept apart here.

`CC(N)C(=O)OCn1ncc2c(=O)[nH]cnc21` (racemic) [1-(DL-Alanyloxymethyl)allopurinol (hydrobromide)] had a solubility in the series “physchem” above 500000 µg/mL. Moreover, the half-life is 15 min in series [1] and 11 min in series [2].
For `CCN(CC)C(C)C(=O)OCn1ncc2c(=O)[nH]cnc21` (racemic) [1-(DL-N,N-Diethylalanyloxymethyl)allopurinol (hydrochloride)], the solubility in the series “physchem” was above 400000 µg/mL. In addition, the figures for the half-life in series [1] and in series [2] were 21 min and 17 min, respectively. In series [3] (pH 8), the lipophilicity (log P) came to 0.72.
Regarding `CC(N)C(=O)OCn1cc2c(=O)n(COC(=O)C(C)N)cnc2n1` (racemic) [2,5-bis(DL-Alanyloxymethyl)allopurinol, 2,5-bis-(DL-Alanyloxymethyl)allopurinol (dihydrobromide)], the half-life in series [1] and in series [2] was below 1 min each time.
Turning to `CC(C)(C)C(=O)OCn1cnc2c(cnn2COC(=O)C(C)(C)C)c1=O` [1,5-bis(Pivaloyloxymethyl)allopurinol], the solubility in the series “physchem” was found to be 20 µg/mL (≈ 0.0549 mM). In series [3], the “log P” value worked out at 2.50.
`O=C(c1ccccc1)n1ncc2c(=O)[nH]cnc21` [1-(Benzoyl)allopurinol]: the half-life in series [1] is 20 min; in series [2] it was 4 min. In series [3], the “log P” value is reported as 1.20.
Take `O=C(OCn1ncc2c(=O)[nH]cnc21)c1ccccc1` [1-(Benzoyloxymethyl)allopurinol]: the half-life was 14200 min in series [1] and 4 min in series [2]. In addition, the “log P” value in series [3] is reported as 1.50.
For the compound `CCCC(=O)OCn1ncc2c(=O)[nH]cnc21` [1-(Butyryloxymethyl)allopurinol], the half-life in series [1] is 11600 min; in series [2], 9 min. In addition, the log partition coefficient (log P) in series [3] stood at 0.60.
Take `O=C(CCl)n1ncc2c(=O)[nH]cnc21` [1-(Chloroacetyl)allopurinol]: the half-life in series [1] and in series [2] was below 1 min each time.
Consider `CCOC(=O)OCn1ncc2c(O)ncnc21` [1-(Ethoxycarbonyloxymethyl)allopurinol], for which the lipophilicity (log P) in series [3] was 0.21. Besides, the half-life in series [2] is 20 min.
In turn, `NCC(=O)OCn1ncc2c(=O)[nH]cnc21` [1-(Glycyloxymethyl)allopurinol, 1-(Glycyloxymethyl)allopurinol (hydrochloride)] registered a solubility in the series “physchem” above 500000 µg/mL. Also, the half-life in series [1] was 26 min; in series [2], 9 min.
The compound `CN(C)CC(=O)n1ncc2c(=O)[nH]cnc21` [1-(N,N--Dimethylglycyl)allopurinol, 1-(N,N-Dimethylglycyl)allopurinol (hydrochloride)] yielded a solubility in “physchem” above 200000 µg/mL. In addition, the half-life in series [1] is 1.5 min; in series [2], below 1 min.
Turning to `CCCCNC(=O)n1ncc2c(=O)[nH]cnc21` [1-(N--Butylcarbamoyl)allopurinol, 1-(N-Butylcarbamoyl)allopurinol], the half-life in series [2] was 90 min.
As for `CC(C)(C)C(=O)OCn1ncc2c(O)ncnc21` [1-(Pivaloyloxymethyl)allopurinol], in “physchem”, the solubility came out at 520 µg/mL (≈ 2.08 mM). The log partition coefficient (log P) in series [3] was 1.07.
With `CN(C)CCCC(=O)OCn1ncc2c(=O)[nH]cnc21` [1-[4-(N,N-Dimethylamino)butyryloxymethyl]allopurinol (hydrochloride)], the half-life was 145 min in series [1] and 140 min in series [2].
As to `CC(=O)OCn1cc2c(=O)n(COC(C)=O)cnc2n1` [2,5-bis(Acetoxymethyl)allopurinol], the concentration in solution in the series “physchem” (solubility) came to 2900 µg/mL (≈ 10.3 mM). Also, the results for the half-life in series [1] and in series [2] were 900 min and 51 min, respectively.
For `CC(C)(C)C(=O)OCn1cc2c(=O)n(COC(=O)C(C)(C)C)cnc2n1` [2,5-bis(Pivaloyloxymethyl)allopurinol], the lipophilicity (log P) in series [3] is 2.34.
In turn, `CC(C)(C)C(=O)OCn1cc2c(=O)[nH]cnc2n1` [2-(Pivaloyloxymethyl)allopurinol, 2-(pivaloyloxymethyl)allopurinol] came in with a solubility in the series “physchem” of 1700 µg/mL (≈ 6.79 mM). Moreover, the “log P” value in series [3] is 0.79.

The solubility is how much of the substance goes into solution per volume. Lower therefore signals little dissolved substance. Usually log P stands for a log measure of how a compound divides between an organic and an aqueous phase.
